Assay results: ChEMBL document CHEMBL4665640, “Structure-Activity Relationship Studies of 3- or 4-Pyridine Derivatives of DS-6930” (ACS Med Chem Lett, 2019)

Legend:
[1] = Clearance in cynomolgus monkey at 1 mg/kg, iv by LC-MS/MS analysis; format: ADME, organism-based, Macaca fascicularis; conditions: in vivo
[2] = Bioavailability in cynomolgus monkey at 1 mg/kg, iv by LC-MS/MS analysis; format: ADME, organism-based, Macaca fascicularis; conditions: in vivo
[3] = Microsomal stability in monkey liver microsomes assessed as parent compound remaining after 30 mins; format: ADME, Macaca mulatta, Microsome; conditions: rhesus monkey, read-out: Stabilty
[4] = 1-octanol/phosphate buffer distribution coefficient, log D of the compound at pH 7.4 measured after 30 mins by HPLC-LC/MS based shake flask method; format: physicochemical
[5] = Microsomal stability in human liver microsomes assessed as parent compound remaining after 30 mins; format: ADME, Microsome; conditions: read-out: Stabilty
[6] = Bioavailability in mouse at 1 mg/kg, iv by LC-MS/MS analysis; format: ADME, organism-based; conditions: in vivo
[7] = Clearance in mouse at 1 mg/kg, iv by LC-MS/MS analysis; format: ADME, organism-based; conditions: in vivo
[8] = Half life in rat at 3 mg/kg, po by LC-MS/MS analysis; format: ADME, organism-based; conditions: in vivo
[9] = Volume of distribution at steady state in cynomolgus monkey at 1 mg/kg, iv by LC-MS/MS analysis; format: ADME, organism-based, Macaca fascicularis; conditions: in vivo, read-out: Vdss
[10] = Cmax in mouse at 3 mg/kg, po by LC-MS/MS analysis; format: ADME, organism-based; set-up: route oral, dose 3 mg/kg; conditions: in vivo
[11] = Tmax in rat at 3 mg/kg, po by LC-MS/MS analysis; format: ADME, organism-based; conditions: in vivo
[12] = Half life in mouse at 3 mg/kg, po by LC-MS/MS analysis; format: ADME, organism-based; conditions: in vivo
[13] = Tmax in mouse at 3 mg/kg, po by LC-MS/MS analysis; format: ADME, organism-based; conditions: in vivo
[14] = Bioavailability in rat at 1 mg/kg, iv by LC-MS/MS analysis; format: ADME, organism-based; conditions: in vivo
[15] = Microsomal stability in rat liver microsomes assessed as parent compound remaining after 30 mins; format: ADME, Microsome; conditions: read-out: Stabilty
[16] = AUClast in rat at 3 mg/kg, po by LC-MS/MS analysis; format: ADME, organism-based; set-up: route oral, time 0 - last, dose 3 mg/kg; conditions: in vivo
[17] = Volume of distribution at steady state in mouse at 1 mg/kg, iv by LC-MS/MS analysis; format: ADME, organism-based; conditions: in vivo, read-out: Vdss
[18] = Clearance in rat at 1 mg/kg, iv by LC-MS/MS analysis; format: ADME, organism-based; conditions: in vivo
[19] = Volume of distribution at steady state in rat at 1 mg/kg, iv by LC-MS/MS analysis; format: ADME, organism-based; conditions: in vivo, read-out: Vdss
[20] = Cmax in cynomolgus monkey at 3 mg/kg, po by LC-MS/MS analysis; format: ADME, organism-based, Macaca fascicularis; set-up: route oral, dose 3 mg/kg; conditions: in vivo
[21] = Tmax in cynomolgus monkey at 3 mg/kg, po by LC-MS/MS analysis; format: ADME, organism-based, Macaca fascicularis; conditions: in vivo
[22] = AUClast in mouse at 3 mg/kg, po by LC-MS/MS analysis; format: ADME, organism-based; set-up: time 0 - last, route oral, dose 3 mg/kg; conditions: in vivo
[23] = Half life in cynomolgus monkey at 3 mg/kg, po by LC-MS/MS analysis; format: ADME, organism-based, Macaca fascicularis; conditions: in vivo
[24] = AUClast in cynomolgus monkey at 3 mg/kg, po by LC-MS/MS analysis; format: ADME, organism-based, Macaca fascicularis; set-up: time 0 - last, route oral, dose 3 mg/kg; conditions: in vivo
[25] = Cmax in rat at 3 mg/kg, po by LC-MS/MS analysis; format: ADME, organism-based; set-up: route oral, dose 3 mg/kg; conditions: in vivo

SMILES: Cc1cnc(Oc2ccc3nc(COc4cccc(C(=O)O)c4)n(C)c3c2)c(C)c1
- clearance [1]: 2.06 mL/min/kg
- bioavailability [2]: 89%
- remaining at 0.5 h [3]: 80%

SMILES: CCc1cc(Oc2ccc3nc(COc4cccc(C(=O)O)c4)n(C)c3c2)ccn1
- logD at 0.5 h [4]: 1.3
- remaining at 0.5 h [5]: 88%

SMILES: Cc1ccc(Oc2ccc3nc(COc4cccc(C(=O)O)c4)n(C)c3c2F)c(C)n1
- bioavailability [6]: 21%
- logD at 0.5 h [4]: 1.6
- clearance [7]: 4.91 mL/min/kg
- half-life [8]: 3.45 h
- Vd [9]: 0.15 L/kg
- Cmax [10]: 1290 ng/mL
- Tmax [11]: 2.25 h
- half-life [12]: 4.35 h
- Tmax [13]: 0.5 h
- bioavailability [14]: 74%
- remaining at 0.5 h [15]: 100%
- clearance [1]: 0.4 mL/min/kg
- AUC(0-t) [16]: 28000 ng·h/mL
- Vd [17]: 0.62 L/kg
- clearance [18]: 1.29 mL/min/kg
- Vd [19]: 0.27 L/kg
- Cmax [20]: 28800 ng/mL
- Tmax [21]: 0.5 h
- bioavailability [2]: 76%
- AUC(0-t) [22]: 2070 ng·h/mL
- half-life [23]: 9.34 h
- AUC(0-t) [24]: 128000 ng·h/mL
- remaining at 0.5 h [3]: 100%
- remaining at 0.5 h [5]: 100%
- Cmax [25]: 3490 ng/mL

SMILES: COc1nc(C)ccc1Oc1ccc2nc(COc3cccc(C(=O)O)c3)n(C)c2c1
- logD at 0.5 h [4]: 1.4

SMILES: Cc1cncc(Oc2ccc3nc(COc4cccc(C(=O)O)c4)n(C)c3c2)c1
- logD at 0.5 h [4]: 1

SMILES: Cc1ccc(Oc2ccc3nc(COc4cccc(C(=O)O)c4)n(C)c3c2C)c(C)n1
- logD at 0.5 h [4]: 1.8

SMILES: Cc1ccc(Oc2cc(C)c3nc(COc4cccc(C(=O)O)c4)n(C)c3c2)c(C)n1
- logD at 0.5 h [4]: 1.7
- remaining at 0.5 h [5]: 100%

SMILES: CCOc1cc(Oc2ccc(C)nc2C)cc2c1nc(COc1cccc(C(=O)O)c1)n2C
- logD at 0.5 h [4]: 1.6
- remaining at 0.5 h [5]: 100%

SMILES: Cc1cc(Oc2ccc3nc(COc4cccc(C(=O)O)c4)n(C)c3c2)ccn1
- logD at 0.5 h [4]: 0.9
- remaining at 0.5 h [5]: 100%

SMILES: COc1cncc(Oc2ccc3nc(COc4cccc(C(=O)O)c4)n(C)c3c2)c1
- logD at 0.5 h [4]: 0.9

SMILES: Cc1ccc(Oc2ccc3nc(COc4cccc(C(=O)O)c4)n(C)c3c2)c(C)n1
- logD at 0.5 h [4]: 1.3
- remaining at 0.5 h [15]: 100%
- remaining at 0.5 h [3]: 100%
- remaining at 0.5 h [5]: 100%

SMILES: CCOc1cc(Oc2ccnc(OC)c2)cc2c1nc(COc1cccc(C(=O)O)c1)n2C
- logD at 0.5 h [4]: 1.7
- remaining at 0.5 h [5]: 100%

SMILES: COc1cc(Oc2cc(C)c3nc(COc4cccc(C(=O)O)c4)n(C)c3c2)ccn1
- logD at 0.5 h [4]: 1.7
- remaining at 0.5 h [5]: 100%

SMILES: Cc1ccc(Oc2ccc3nc(COc4cccc(C(=O)O)c4)n(C)c3c2)cn1
- logD at 0.5 h [4]: 0.8
- remaining at 0.5 h [5]: 87%

SMILES: COc1cc(Oc2ccc3nc(COc4cccc(C(=O)O)c4)n(C)c3c2)ccn1
- logD at 0.5 h [4]: 1.3
- remaining at 0.5 h [15]: 100%
- remaining at 0.5 h [3]: 100%
- remaining at 0.5 h [5]: 98%

SMILES: COc1cc(Oc2ccc3nc(COc4cccc(C(=O)O)c4)n(C)c3c2F)ccn1
- logD at 0.5 h [4]: 1.7
- remaining at 0.5 h [5]: 97%

SMILES: COc1cc(Oc2cc(OC(C)C)c3nc(COc4cccc(C(=O)O)c4)n(C)c3c2)ccn1
- logD at 0.5 h [4]: 2
- remaining at 0.5 h [15]: 91%
- remaining at 0.5 h [3]: 94%
- remaining at 0.5 h [5]: 97%

SMILES: COc1cc(Oc2ccc3nc(COc4cccc(C(=O)O)c4)n(C)c3c2)cc(C)n1
- logD at 0.5 h [4]: 1.7
- remaining at 0.5 h [15]: 96%
- remaining at 0.5 h [3]: 85%
- remaining at 0.5 h [5]: 96%

SMILES: Cc1ccncc1Oc1ccc2nc(COc3cccc(C(=O)O)c3)n(C)c2c1
- logD at 0.5 h [4]: 0.8
- remaining at 0.5 h [5]: 100%

SMILES: Cc1ccc(Oc2cc(OC(C)C)c3nc(COc4cccc(C(=O)O)c4)n(C)c3c2)c(C)n1
- logD at 0.5 h [4]: 1.9
- remaining at 0.5 h [15]: 65%
- remaining at 0.5 h [3]: 81%
- remaining at 0.5 h [5]: 91%

SMILES: CCCOc1cc(Oc2ccc(C)nc2C)cc2c1nc(COc1cccc(C(=O)O)c1)n2C
- logD at 0.5 h [4]: 2.2

SMILES: Cc1cc(Oc2ccc3nc(COc4cccc(C(=O)O)c4)n(C)c3c2)cc(C)n1
- logD at 0.5 h [4]: 1

SMILES: COc1cc(Oc2ccc3nc(COc4cccc(C(=O)O)c4)n(C)c3n2)cc(C)n1
- logD at 0.5 h [4]: 1.2
- Vd [9]: 0.35 L/kg
- remaining at 0.5 h [15]: 98%
- clearance [1]: 2.08 mL/min/kg
- Cmax [20]: 500 ng/mL
- Tmax [21]: 4.5 h
- bioavailability [2]: 18%
- half-life [23]: 7.3 h
- AUC(0-t) [24]: 5120 ng·h/mL
- remaining at 0.5 h [3]: 100%
- remaining at 0.5 h [5]: 91%

SMILES: Cc1ncccc1Oc1ccc2nc(COc3cccc(C(=O)O)c3)n(C)c2c1
- logD at 0.5 h [4]: 1
- remaining at 0.5 h [5]: 98%

SMILES: COc1ncc(Oc2ccc3nc(COc4cccc(C(=O)O)c4)n(C)c3c2)cc1C
- logD at 0.5 h [4]: 2
- remaining at 0.5 h [15]: 82%
- remaining at 0.5 h [3]: 98%
- remaining at 0.5 h [5]: 100%

SMILES: COc1ncccc1Oc1ccc2nc(COc3cccc(C(=O)O)c3)n(C)c2c1
- logD at 0.5 h [4]: 0.9

SMILES: Cc1cnc(Oc2cc(OC(C)C)c3nc(COc4cccc(C(=O)O)c4)n(C)c3c2)c(C)c1
- logD at 0.5 h [4]: 2
- remaining at 0.5 h [15]: 13%
- remaining at 0.5 h [3]: 84%
- remaining at 0.5 h [5]: 96%

SMILES: CCOc1cc(Oc2ccc3nc(COc4cccc(C(=O)O)c4)n(C)c3c2)ccn1
- logD at 0.5 h [4]: 1.8
- remaining at 0.5 h [5]: 94%

SMILES: COc1ccc(Oc2ccc3nc(COc4cccc(C(=O)O)c4)n(C)c3c2)c(C)n1
- logD at 0.5 h [4]: 1.7

SMILES: COc1ccc(Oc2ccc3nc(COc4cccc(C(=O)O)c4)n(C)c3c2)cn1
- logD at 0.5 h [4]: 1.3

SMILES: Cn1c(COc2cccc(C(=O)O)c2)nc2ccc(Oc3ccnc(Cl)c3)cc21
- logD at 0.5 h [4]: 1.1

SMILES: COc1cc(Oc2ccc(C)nc2C)cc2c1nc(COc1cccc(C(=O)O)c1)n2C
- logD at 0.5 h [4]: 1.2

SMILES: Cn1c(COc2cccc(C(=O)O)c2)nc2ccc(Oc3cccnc3)cc21
- logD at 0.5 h [4]: 0.5
- remaining at 0.5 h [5]: 100%

SMILES: CCOc1cc(Oc2ncc(C)cc2C)cc2c1nc(COc1cccc(C(=O)O)c1)n2C
- logD at 0.5 h [4]: 1.7
- remaining at 0.5 h [5]: 100%
